Values after ≈ are worked out from the molar mass of the structure shown. Square brackets hold non-standard residues; d marks the D form. Ends that are not written are not given here. Peptide text beside a SMILES is read from it.
Columns and labels:
[1] = test system: E. coli; test: CFU assay in 10% FCS/DMEM; type: cell-based; conditions: 3 hrs
Method: (§1) The CFU assay is the “gold standard” for evaluating antibiotics. Briefly, bacteria are grown overnight in rich medium, such as LB, and then diluted and grown in log phase for 2-4 hours. Cultures are set up as above, with the initial culture media being 10 mM phosphate buffer/0.03% LB; DMEM or RPMI; or DMEM or RPMI plus 10% serum (fetal calf, human, or mouse). After various periods of time, but generally 3 hours or less, aliquots are removed, diluted in LB at various dilutions, and plated on LB agar plates. Plates are incubated overnight at 37° C. and counted on an automatic colony counter.
(§2) Three preferred peptides G11.46, G12.21 and G14.15, discussed above, were further tested for antimicrobial efficacy under various conditions using the 10% FCS/DMEM assay as described under CFU assay. The incubation times with the bacteria and peptide was three hours, at which time the bacteria were diluted and plated on agar. […] The MIC for each compound is highlighted.

[2] = test system: Salmonella typhimurium; test: CFU assay in 10% FCS/DMEM; type: cell-based; conditions: 3 hrs
Method: as §1, §2

[3] = test system: Staphylococcus aureus; test: CFU assay in 10% FCS/DMEM; type: cell-based; conditions: 3 hrs
Method: as §1, §2

[4] = test system: bacterial strains; test: organism not typed; type: cell-based
Method: as §2
Table 9 below repeats some data presented above in Tables 6, 7, and 8.

[5] = test system: B. cereus; type: cell-based; conditions: pH 7.2
Outline: (§3)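 Bacterial suspensions (~5×10^6 CFU/ml) and serially diluted peptides, both in low-nutrient phosphate buffer (pH 7.2, 0.03% LB), are combined and held 3 h at 37 °C. Full LB is added for overnight growth. The MIC marks no growth, and IC50 marks 50% growth relative to medium.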

[6] = test system: E. coli DH5a; type: cell-based; conditions: DH5a, pH 7.2
Outline: as §3

[7] = test system: Salmonella; type: cell-based, S. typhimurium; conditions: pH 7.2
Outline: as §3

[8] = test system: bacteria; test: Activity in DMEM and RPMI media (lysis of bacteria); type: cell-based; design: key to Active in DMEM: YES: Active in DMEM; a blank means no activity; conditions: Table 2; tested in DMEM and RPMI
Method: as §1
In the column “Active in DMEM”, a blank means no activity. MAP stands for multiple antigenic peptide, where a number of identical peptide chains are synthesized and joined to a common core (like a dendrimer).
The peptides listed in Table 2 were tested in DMEM and RPMI, media that approximate blood and tissue conditions in vivo and those that were active under these conditions are listed in the last column (active in DMEM). […] No peptides that were all L-isomer peptides lysed bacteria in DMEM supplemented with serum.
The hydrophobic moment is a measure of amphipathicity and indicates how well the hydrophobic residues fall on one side of the helix while the hydrophilic residues fall on the opposite side is shown in column 7. This was determined using the Membrane Explorer Program (http://blanco.biomol.uci.edu/mpex/). A high number indicates a high hydrophobic moment. Column 8 again (like Table 2) indicates which of these peptides is active in DMEM.

[9] = test system: bacteria; test: Activity in serum containing media (10% FCS in DMEM or RPMI); type: cell-based; conditions: 10% FCS in DMEM or RPMI
Method: as §1
Tests were conducted in low salt concentrations so that active peptide candidates could be identified more readily. It is important for in vivo applications that the present antimicrobial peptides be active in physiological salt concentrations (150 mM) as well as in the presence of other tissue components, such as blood plasma (serum). Serum may contain proteases that destroy peptides; the use of D-amino acids can improve protease resistance. See G12.21. […] Also active were G11.6, G11.26, G11.29, G11.30, G11.34, G11.35, G12.11, G12.19, G12.20 and G12.21. […]

[10] = test system: B. cereus; test: CFU assay in 10% FCS/DMEM; type: cell-based; conditions: 3 hrs
Method: as §1, §2

gentamicin [reference compound]
% Survival (CFU Assay) ([1]; 0.08 μM): 117.89%
% Survival (CFU Assay) ([1]; 0.16 μM): 110.6%
% Survival (CFU Assay) ([1]; 0.32 μM): 87.76%
% Survival (CFU Assay) ([1]; 0.63 μM): 17.05%
% Survival (CFU Assay) ([1]; 1.25 μM): 0.21%
% Survival (CFU Assay) ([1]; 2.5 μM): 0.052%
% Survival (CFU Assay) ([2]; 0.04 μM): 119.73%
% Survival (CFU Assay) ([2]; 0.08 μM): 103.72%
% Survival (CFU Assay) ([2]; 0.16 μM): 105.73%
% Survival (CFU Assay) ([2]; 0.32 μM): 93.27%
% Survival (CFU Assay) ([2]; 0.63 μM): 70.15%
% Survival (CFU Assay) ([2]; >1.25 μM): 29.7%
% Survival (CFU Assay) ([3]; 0.04 μM): 90.73%
% Survival (CFU Assay) ([3]; 0.08 μM): 78.94%
% Survival (CFU Assay) ([3]; 0.16 μM): 59.49%
% Survival (CFU Assay) ([3]; 0.32 μM): 37%
% Survival (CFU Assay) ([3]; 0.63 μM): 28.51%
% Survival (CFU Assay) ([3]; >1.25 μM): 17.1%
MIC ([4]; E. Coli (ATCC#25922), CFU Assay in 10% FCS/DMEM (3 hrs)): 1.25 µM
MIC ([4]; Salmonella (SL1344), CFU Assay in 10% FCS/DMEM (3 hrs)): 2.5 to 5 µM
MIC ([4]; Staph A (ATCC#29213), CFU Assay in 10% FCS/DMEM (3 hrs)): >1.25 µM

CSCC[C@H](NC(=O)[C@H](Cc1ccccc1)NC(=O)[C@@H](CCCNC(=N)N)NC(=O)[C@@H](CCCNC(=N)N)NC(=O)[C@H](CO)NC(=O)[C@@H](NC(=O)[C@H](CC(=O)O)NC(=O)[C@H](CCCNC(=N)N)NC(=O)[C@H](Cc1c[nH]c2ccccc12)NC(=O)[C@H](CCCNC(=N)N)NC(=O)[C@H](CO)NC(=O)[C@H](CCCNC(=N)N)NC(=O)CNC(=O)[C@@H](NC(=O)[C@H](CCCNC(=N)N)NC(=O)[C@H](CO)NC(=O)[C@@H](NC(=O)[C@H](CCCNC(=N)N)NC(=O)[C@@H](NC(=O)[C@@H]1CCCN1C(=O)[C@@H]1CCCN1C(=O)[C@H](CCCNC(=N)N)NC(=O)[C@H](CO)NC(=O)[C@@H](NC(=O)[C@H](CO)NC(=O)[C@H](CCCNC(=N)N)NC(=O)[C@@H](N)CCC(N)=O)C(C)C)[C@@H](C)O)C(C)C)[C@@H](C)O)C(C)C)C(=O)N[C@@H](CCCNC(=N)N)C(=O)N[C@@H](CCCNC(=N)N)C(=O)O [Peptide G8.11] (H-QRSVSRPPTRVSRTGRSRWRDVS[dR][dR]FMRR-OH; N-terminus and C-terminus assumed)
B. cereus MIC [5]: 0.75 µM
IC50 [5]: 0.45 µM
E. coli DH5a MIC [6]: 0.35 µM
IC50 [6]: 0.21 µM
IC50 [7]: 0.22 µM
Salmonella MIC [7]: 0.35 µM
Active in DMEM [8]: YES
active in serum containing media [9]: active

RRVSRPPMRRYRSRRPRRLV [Peptide G12.20]
B. cereus MIC [5]: 0.35 µM
IC50 [5]: 0.21 µM
E. coli DH5a MIC [6]: 0.73 µM
IC50 [6]: 0.23 µM
IC50 [7]: 0.42 µM
Salmonella MIC [7]: 1.4 µM
Active in DMEM [8]: YES
active in serum containing media [9]: active

RRVSRRFMRRYRSRRPRRLV [Peptide G12.11]
B. cereus MIC [5]: 0.35 µM
IC50 [5]: 0.21 µM
E. coli DH5a MIC [6]: 0.75 µM
IC50 [6]: 0.21 µM
IC50 [7]: 0.41 µM
Salmonella MIC [7]: 0.65 µM
Active in DMEM [8]: YES
active in serum containing media [9]: active

CN[C@H](CC(C)C)C(=O)N[C@H]1C(=O)N[C@@H](CC(N)=O)C(=O)N[C@H]2C(=O)N[C@H]3C(=O)N[C@H](C(=O)N[C@H](C(=O)O)c4cc(O)cc(O)c4-c4cc3ccc4O)[C@H](O)c3ccc(c(Cl)c3)Oc3cc2cc(c3O[C@@H]2O[C@H](CO)[C@@H](O)[C@H](O)[C@H]2O[C@H]2C[C@](C)(N)[C@H](O)[C@H](C)O2)Oc2ccc(cc2Cl)[C@H]1O [vancomycin, reference compound]
% Survival (CFU Assay) ([10]; 0.08 uM): 97.67%
% Survival (CFU Assay) ([10]; 0.16 uM): 113.37%
% Survival (CFU Assay) ([10]; 0.32 uM): 79.59%
% Survival (CFU Assay) ([10]; 0.63 uM): 63.73%
% Survival (CFU Assay) ([10]; 1.25 uM): 9.06%
% Survival (CFU Assay) ([10]; 2.5 uM): 1.09%
MIC ([4]; 3 h): > 10 µM
MIC ([4]; Bacillus cereus, ATCC53522, 3 h): 2.5 µM (≈ 3.62 µg/mL)

RDVSRRFMRRGSRDVSRRFMRRGSRDVSRRFMRR [Peptide G11.26]
B. cereus MIC [5]: 0.35 µM
IC50 [5]: 0.21 µM
E. coli DH5a MIC [6]: 0.7 µM
IC50 [6]: 0.4 µM
IC50 [7]: 0.21 µM
Salmonella MIC [7]: 0.35 µM
Active in DMEM [8]: YES
active in serum containing media [9]: active
